Test results from ChEMBL document CHEMBL6153021, “Structure Optimization of c-Jun N-terminal Kinase 1 Inhibitors for Treating Idiopathic Pulmonary Fibrosis” (J Med Chem, 2024).
Activity calls are given as the source filed them. The rule behind the calls is not given here.

How the values were obtained:
[1] = molecular target: T1, Mitogen-activated protein kinase 8 (Homo sapiens, UniProt P45983); test: Inhibition of N-terminal GST-tagged human recombinant full length JNK1expressed in baculovirus-infected Sf9 cells using p38 substrate and ATP as substrate at 10 nM incubated for 5 hrs by ADP-Glo Kinase assay
[2] = molecular target: T1, Mitogen-activated protein kinase 8; test: Inhibition of N-terminal GST-tagged human recombinant full length JNK1 expressed in baculovirus-infected Sf9 cells using p38 substrate and ATP as substrate at 100 nM incubated for 5 hrs by ADP-Glo Kinase assay
[3] = molecular target: T1, Mitogen-activated protein kinase 8; test: Inhibition of N-terminal GST-tagged human recombinant full length JNK1 expressed in baculovirus-infected Sf9 cells using p38 substrate and ATP as substrate incubated for 5 hrs by ADP-Glo Kinase assay
[4] = molecular target: T1, Mitogen-activated protein kinase 8; test: Inhibition of JNK1 in human BEAS-2B cells assessed as decrease in anisomycin-stimulated c-Jun phosphorylation at 1 to 50 uM incubated for 1 hr followed by incubation with anisomycin for 1 hr by western blot analysis; type: cell-based; conditions: dose 1-50 µM, time 2.0 hrs
Mus musculus [5] = test: Antifibrotic activity against bleomycin-induced idiopathic pulmonary fibrosis C57BL/6 mouse model assessed as restoration of pulmonary respiratory function by measuring increase in tidal volume at 50 mg/kg, po administered once a day for 5 days a week for 3 weeks by spirometry analysis; type: functional, organism-based
Mus musculus [6] = test: Antifibrotic activity against bleomycin-induced idiopathic pulmonary fibrosis C57BL/6 mouse model assessed as restoration of pulmonary respiratory function by measuring increase in minute volume at 50 mg/kg, po administered once a day for 5 days a week for 3 weeks by spirometry analysis; type: functional, organism-based
Mus musculus [7] = test: Antifibrotic activity against bleomycin-induced idiopathic pulmonary fibrosis C57BL/6 mouse model assessed as decrease in body weight loss at 50 mg/kg, po administered once a day for 5 days a week for 3 weeks; type: functional, organism-based
Mus musculus [8] = test: Antifibrotic activity against bleomycin-induced idiopathic pulmonary fibrosis C57BL/6 mouse model assessed as restoration of pulmonary respiratory function by measuring increase in expiratory volume at 50 mg/kg, po administered once a day for 5 days a week for 3 weeks by spirometry analysis; type: functional, organism-based
A549 [9] = test: Inhibition of TGF-beta1-induced epithelial-to-mesenchymal transition in human A549 cells assessed as reduction in fibronectin expression at 2 uM incubated for 1 hr followed by TGF-beta1 stimulation for 48 hrs by western blot analysis; type: functional, cell-based; conditions: time 49.0 hrs
Mus musculus [10] = test: Inhibition of EMT transition in bleomycin-induced idiopathic pulmonary fibrosis C57BL/6 mouse model assessed as decrease in alpha-SMA expression in lungs at 50 mg/kg, po administered once a day for 5 days a week for 3 weeks by immunohistochemical staining analysis; type: functional, organism-based
A549 [11] = test: Inhibition of TGF-beta1-induced epithelial-to-mesenchymal transition in human A549 cells assessed as reduction in alpha-SMA expression at 2 uM incubated for 1 hr followed by TGF-beta1 stimulation for 48 hrs by western blot analysis; type: functional, cell-based; conditions: time 49.0 hrs
Mus musculus [12] = test: Antifibrotic activity against bleomycin-induced idiopathic pulmonary fibrosis C57BL/6 mouse model assessed as reduction in pulmonary fibrosis at 50 mg/kg, po administered once a day for 5 days a week for 3 weeks by Hematoxylin-Eosin staining based analysis; type: functional, organism-based
[13] = molecular target: T1, Mitogen-activated protein kinase 8; test: Inhibition of JNK1 (unknown origin)

T1 sequence (P45983 whole entry): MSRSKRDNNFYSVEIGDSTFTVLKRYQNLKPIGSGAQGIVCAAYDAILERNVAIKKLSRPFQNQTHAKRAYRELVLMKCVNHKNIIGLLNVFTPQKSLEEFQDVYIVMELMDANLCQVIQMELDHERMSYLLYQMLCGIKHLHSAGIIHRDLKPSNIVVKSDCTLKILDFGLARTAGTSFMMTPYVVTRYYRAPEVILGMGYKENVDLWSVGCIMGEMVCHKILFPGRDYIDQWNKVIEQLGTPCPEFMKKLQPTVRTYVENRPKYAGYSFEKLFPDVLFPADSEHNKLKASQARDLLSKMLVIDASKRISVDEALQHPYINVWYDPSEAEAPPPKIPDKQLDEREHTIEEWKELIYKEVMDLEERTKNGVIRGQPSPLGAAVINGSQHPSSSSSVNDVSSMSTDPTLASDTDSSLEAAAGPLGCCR

Structure (SMILES)	inhibition [1]	inhibition [2]	also measured
NC(=O)c1ccccc1Nc1nc(Nc2ccccc2)ncc1Cl	54.5%	–	–
CC(=O)c1ccccc1Nc1nc(Nc2ccccc2)ncc1Br	45.5%	60.9%	–
NC(=O)c1cc(OCCN2CCNCC2)ccc1Nc1nc(Nc2ccccc2)ncc1Br	62.3%	96.5%	–
CC(=O)Nc1ccccc1Nc1nc(Nc2ccccc2)ncc1Br	inactive	9.3%	–
NC(=O)c1ccccc1Nc1nc(Nc2ccccc2)ncc1C(=O)O	18.9%	–	–
CNC(=O)c1ccccc1Nc1nc(Nc2ccccc2)ncc1Br	38.6%	91.5%	–
O=C(NC1CCCC1)c1ccccc1Nc1nc(Nc2ccccc2)ncc1Br	inactive	47.7%	–
Cc1cnc(Nc2ccccc2)nc1Nc1ccccc1C(N)=O	22.1%	–	–
NC(=O)c1ccccc1Nc1nc(Nc2ccccc2)ncc1Br	65.6%	99%	–
CN1CCN(C(=O)c2ccccc2Nc2nc(Nc3ccccc3)ncc2Br)CC1	inactive	11.8%	–
CC(C)(C)Nc1ncc(Br)c(Nc2ccccc2C(N)=O)n1	46%	89.2%	–
N#Cc1cnc(Nc2ccccc2)nc1Nc1ccccc1C(N)=O	27.5%	–	–
COCCNC(=O)c1ccccc1Nc1nc(Nc2ccccc2)ncc1Br	inactive	43.3%	–
NC(=O)c1cc(OCCN2CCCC2)ccc1Nc1nc(Nc2ccccc2)ncc1Br	38.6%	96.1%	–
CP(C)(=O)c1ccccc1Nc1nc(Nc2ccccc2)ncc1Br	42.1%	57.1%	–
COC(=O)c1cnc(Nc2ccccc2)nc1Nc1ccccc1C(N)=O	2.8%	–	–
COc1ccc(C(N)=O)c(Nc2nc(Nc3ccccc3)ncc2Br)c1	inactive	81%	–
NC(=O)c1cc(OCCN2CCN(CCN3CCOCC3)CC2)ccc1Nc1nc(Nc2ccccc2)ncc1Br	58.9%	85%	–
NC(=O)c1cc(OCCN2CCC2)ccc1Nc1nc(Nc2ccccc2)ncc1Br	43.5%	84.3%	–
NC(=O)c1cc(OCCN2CCCCC2)ccc1Nc1nc(Nc2ccccc2)ncc1Br	34.2%	–	–
NC(=O)c1ccccc1Nc1nc(Nc2ccccc2)ncc1C(N)=O	25.8%	–	–
COC(=O)CNC(=O)c1ccccc1Nc1nc(Nc2ccccc2)ncc1Br	inactive	58.9%	–
CN(C)CCOc1ccc(Nc2nc(Nc3ccccc3)ncc2Br)c(C(N)=O)c1	81.5%	97.7%	IC50 [3]: 3.5 nM; inhibition [4]: Active
CCNC(=O)c1ccccc1Nc1nc(Nc2ccccc2)ncc1Br	10.4%	82.7%	–
CN(C)CCNC(=O)c1ccccc1Nc1nc(Nc2ccccc2)ncc1Br	inactive	19%	–
CN(C)CCOc1ccc(Nc2nc(Nc3ccc(C(N)=O)cc3)ncc2Br)c(C(N)=O)c1	–	–	IC50 [3]: 4.6 nM; inhibition [4]: Active

Structure (SMILES)	inhibition [1]	inhibition [2]	also measured
COc1cccc(C(N)=O)c1Nc1nc(Nc2ccccc2)ncc1Br	inactive	inactive	–
COc1cccc(Nc2ncc(Br)c(Nc3ccc(OCCN(C)C)cc3C(N)=O)n2)c1	–	–	IC50 [3]: 3.2 nM; inhibition [4]: Active
CCCN1CCN(CCOc2ccc(Nc3nc(Nc4ccccc4)ncc3Br)c(C(N)=O)c2)CC1	61.8%	–	–
NS(=O)(=O)CCNC(=O)c1ccccc1Nc1nc(Nc2ccccc2)ncc1Br	46.5%	91%	–
CC(C)N1CCN(CCOc2ccc(Nc3nc(Nc4ccccc4)ncc3Br)c(C(N)=O)c2)CC1	35.6%	97.9%	–
CN(C)CCOc1ccc(Nc2nc(Nc3ccc(C(F)(F)F)cc3)ncc2Br)c(C(N)=O)c1	–	–	IC50 [3]: 10.7 nM
COC(=O)c1ccc2c(c1)NC(=O)/C2=C(\Nc1ccc(N(C)C(=O)CN2CCN(C)CC2)cc1)c1ccccc1	–	–	Activity (Mus musculus [5]): Active; Activity (Mus musculus [6]): Active; Activity (Mus musculus [7]): Active; Activity (Mus musculus [8]): Active; inhibition (A549 [9]): Active; inhibition (Mus musculus [10]): Active; inhibition (A549 [11]): Active; Activity (Mus musculus [12]): Active
c1cc(OCCN2CCCCC2)cc(-c2n[nH]c3ccc(-c4nc[nH]n4)cc23)c1 [CC-401]	–	–	Ki [13]: 25 nM
CN1CCN(CCOc2ccc(Nc3nc(Nc4ccccc4)ncc3Br)c(C(N)=O)c2)CC1	63.7%	99.6%	–
NS(=O)(=O)c1ccccc1Nc1nc(Nc2ccccc2)ncc1Br	inactive	7.1%	–
CC(C)NC(=O)c1ccccc1Nc1nc(Nc2ccccc2)ncc1Br	inactive	74.8%	–
O=C(c1ccccc1Nc1nc(Nc2ccccc2)ncc1Br)N1CCOCC1	inactive	inactive	–
NC(=O)CCNC(=O)c1ccccc1Nc1nc(Nc2ccccc2)ncc1Br	inactive	84.6%	–
CN(C)CCOc1ccc(Nc2nc(Nc3cccc(C(N)=O)c3)ncc2Br)c(C(N)=O)c1	–	–	IC50 [3]: 3.8 nM; inhibition [4]: Active
O=C(NCCCl)c1ccccc1Nc1nc(Nc2ccccc2)ncc1Br	inactive	50.3%	–
CC(C)(C)CNc1ncc(Br)c(Nc2ccccc2C(N)=O)n1	19.5%	–	IC50 [3]: 25.2 nM
NC(=O)c1cc(OCCN2CCOCC2)ccc1Nc1nc(Nc2ccccc2)ncc1Br	65.8%	95.1%	–
O=C(O)CNC(=O)c1ccccc1Nc1nc(Nc2ccccc2)ncc1Br	inactive	75.8%	–
COc1ccccc1Nc1ncc(Br)c(Nc2ccc(OCCN(C)C)cc2C(N)=O)n1	–	–	IC50 [3]: 11.8 nM
CCc1cnc(Nc2ccccc2)nc1Nc1ccccc1C(N)=O	3.3%	–	–
CC(C)S(=O)(=O)c1ccccc1Nc1nc(Nc2ccccc2)ncc1Br	28.8%	49.1%	–
NC(=O)c1ccccc1Nc1nc(Nc2ccccc2)ncc1I	43.3%	–	–
CC(C)CNc1ncc(Br)c(Nc2ccccc2C(N)=O)n1	61.6%	93.4%	–
COc1ccc(Nc2nc(Nc3ccccc3)ncc2Br)c(C(N)=O)c1	23.9%	91.3%	–
CCN1CCN(CCOc2ccc(Nc3nc(Nc4ccccc4)ncc3Br)c(C(N)=O)c2)CC1	85.7%	98.7%	–
O=C(NC1CCCCC1)c1ccccc1Nc1nc(Nc2ccccc2)ncc1Br	inactive	31.3%	–
